Results reported in patent publication US10426775B2, “Methods for treating Friedreich's ataxia with etravirine” (Fratagene Therapeutics srl, priority 2017, dated 2019).

Columns and labels:
Type in all cases: cell-based, human
[1] = tested on: frataxin precursor; assay: Western blot of frataxin in HEK293 cells expressing only endogenous frataxin; settings: 10 μM etravirine
Description: Total cell extracts were prepared in lysis buffer (50 mM Tris-HCl, pH 7.5, 150 mM NaCl, 1% Igepal CA-630, 5 mM EDTA, 5 mM EGTA) supplemented with complete protease inhibitor cocktail (Roche Diagnostics, Indianapolis, Ind., USA). Lysates were clarified by centrifugation and supernatants were mixed with 4× Laemmli sample buffer (50 mM Tris pH 6.8, 2% SDS, 10% gliycerol, 0.0025% bromophenol blue, 5% beta-mercaptoethanol), boiled for 5 min, resolved by precast 12% SDS-PAGE gels (Bio-Rad Laboratories, Hercules, Calif., USA) and transferred to […] nitrocellulose membrane (TRANS-BLOT® TURBO™ Transfer pack, Bio-Rad). […] The immunoreactive bands were detected by ECL (GE Healthcare, Chalfont St. Giles, UK) and imaged with a ChemiDoc XRS system (Bio-Rad). […] All values are expressed as means±1 S.E.M.
The identified candidate drugs were individually validated for their ability to promote frataxin accumulation in different cell types. […] Protein extracts from the cell lines were resolved on SDS-PAGE and analyzed by western blot with anti-frataxin antibody and anti-tubulin as a loading control. […]
(§1) HEK 293-fxn stably expressing frataxin (A), HEK 293 (B), or FRDA lymphoblast cell line GM16203 (C) were treated with 10 μM etravirine for the indicated time points. Protein extracts were resolved on SDS-PAGE and analyzed by western blot with anti-frataxin antibody and anti-tubulin as a loading control. […]

[2] = tested on: mature frataxin; assay: Western blot of frataxin in primary fibroblasts derived from FRDA patients; settings: 300 nM etravirine, 24 hours
Description: Lymphoblastoid cell lines from one healthy subject [GM16215] and 7 FRDA patients [GM16228, GM16203, GM16214, GM16223, GM16210, GM16205, GM16216], and primary fibroblasts from 2 FRDA patients [GM02816 and GM04078], were obtained from NIGMS Human Genetic Cell Repository, Coriell Institute for Medical Research (Camden, N.J., USA). Lymphoblasts and fibroblasts were grown at 37° C. and 5% CO2 and were respectively cultured in RPMI or DMEM, supplemented with 15% FBS, […] penicillin/streptomycin and 2 mM L-glutamine.
For the validation steps, etravirine (TMC125) was purchased from Selleckchem and was dissolved in DMSO at a stock concentration of 10 mM. […]
Total cell extracts were prepared in lysis buffer (50 mM Tris-HCl, pH 7.5, 150 mM NaCl, 1% Igepal CA-630, 5 mM EDTA, 5 mM EGTA) supplemented with complete protease inhibitor cocktail (Roche Diagnostics, Indianapolis, Ind., USA). […] The immunoreactive bands were detected by ECL (GE Healthcare, Chalfont St. Giles, UK) and imaged with a ChemiDoc XRS system (Bio-Rad). […] All values are expressed as means±1 S.E.M.
We chose the minimal effective dose (300 nM) to evaluate the efficacy of etravirine over a broad range of cells derived from FRDA patients. In particular, we analysed 7 lymphoblastoid cell lines derived from FRDA patients and primary fibroblasts derived from two different FRDA patients. […]

[3] = tested on: newly synthesized frataxin mRNA; assay: Nascent frataxin transcripts (EU metabolic labeling, Click-iT capture, real-time PCR) in HEK293-fxn; settings: 10 μM, 4 or 8 hours
Description: We then investigated whether the observed increase in frataxin protein levels is due to an upregulation of the frataxin mRNA, either promoted by an increase in the […] rate of frataxin mRNA or by its stabilization. To understand whether etravirine promotes de novo synthesis of frataxin mRNA, we metabolically labeled nascent transcripts through the incorporation of 5-ethynyl uridine (EU). Through a click chemistry-based reaction, biotin was then conjugated to EU-labelled transcripts, thus allowing selective isolation and analysis of newly synthesized mRNA. We therefore quantitatively analyzed the relative amount of newly synthesized frataxin mRNA in etravirine-treated HEK293-fxn cells, compared to untreated control cells. […] We then analyzed the effect of etravirine on the decay of frataxin transcript observed upon treatment with actinomycin. HEK293-fxn cells were treated with actinomycin for 4, 8 or 12 hours in the presence or absence of etravirine and frataxin mRNA was quantitated by RT-PCR.
as §1, with “control. Etr: etravirine; tub: tubulin; fxn pre: frataxin precursor.” for “control.”

[4] = tested on: frataxin-deficient cells; assay: Toxic effect and cell viability of etravirine-treated frataxin-deficient cells; settings: any of the tested doses
[5] = tested on: frataxin; assay: Western blot of frataxin in lymphoblastoid cell lines derived from FRDA patients; settings: GM16214, 500 nM etravirine, 24 and 48 hours, compared with GM16215

Structure (SMILES): Cc1cc(C#N)cc(C)c1Oc1nc(Nc2ccc(C#N)cc2)nc(N)c1Br [etravirine]
- frataxin precursor accumulation [1]: can also be detected
- average fold increase in mature frataxin levels ([2]; GM03816 fibroblasts (380 GAA repeats)): 1.65 fold
- average fold increase in mature frataxin levels ([2]; GM04078 fibroblasts (541 GAA repeats)): 1.71 fold
- relative amount of newly synthesized frataxin mRNA vs untreated control cells [3]: did not observe any difference
- toxic effect on frataxin-deficient cells [4]: does not show any toxic effect
- cell viability ([4]; frataxin-deficient cells): does not affect cell viability
- frataxin levels in FRDA cells during etravirine treatment [5]: increase over time
